According to the supplement of paper PMC12533247:

Assays:
[1] = tested on: HSV-1 K26-GFP infected primary human skin cells; assay: % change of HSV-1 GFP signal vs untreated infected cells; higher = less antiviral inhibition; conditions: cell type: primary dermal fibroblasts, time (h post infection): 48
Method: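 2D primary donor-derived dermal fibroblasts infected with GFP-HSV-1 K26 at MOI 1, treated 1 h later with compound dilutions and read at 48 hpi on IncuCyte. GFP integrated intensity is normalised to mock-infected and untreated infected wells (% change; -100 = full inhibition).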

[2] = tested on: HSV-1 K26-GFP infected primary human skin cells; assay: as above
Method: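 2D primary donor-derived keratinocytes (read at 20 hpi) and donor-matched dermal fibroblasts (read at 48 hpi) infected with GFP-HSV-1 K26 at MOI 1 and treated 1 h later with compound dilutions. IncuCyte GFP integrated intensity is normalised by subtracting mock-infected wells and dividing by untreated infected wells, shown as % change (-100 = full inhibition).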

Nc1nc2c(ncn2COCCO)c(=O)[nH]1 [Acyclovir]
% change of HSV-1 GFP signal [%], [1]
Conditions	0.01 µM	0.03 µM	0.091 µM	0.274 µM	0.823 µM	2.469 µM	7.407 µM	22.222 µM	66.667 µM	200 µM
donor: 3	11.2	-4.39	-24.2	-53.8	-81.8	-96	-98.87	-99.69	-99.875	-99.88
donor: 4	-5.12	-10.6	-29.8	-54.4	-78.2	-94	-98.8	-99.862	-99.93	-99.998

% change of HSV-1 GFP signal [%], [2]
Conditions	0.01 µM	0.03 µM	0.091 µM	0.274 µM	0.823 µM	2.469 µM	7.407 µM	22.222 µM	66.667 µM	200 µM
cell type: primary dermal fibroblasts, donor: 5, time (h post infection): 48	8.25	5.48	-8.89	-35.4	-64.4	-91.6	-98.36	-99.642	-99.73	-99.952
cell type: primary keratinocytes, donor: 3, time (h post infection): 20	4.06	2.08	5.2	11.3	10.1	10.8	5.3	-13.4	-42.3	-69.1
cell type: primary keratinocytes, donor: 4, time (h post infection): 20	3.4	-0.143	2.05	3.28	-0.371	-2.35	-4.48	-27.5	-53.6	-80.5
cell type: primary keratinocytes, donor: 5, time (h post infection): 20	3.43	1.77	4.64	3.64	4.14	5.76	-4.49	-17.7	-45.6	-75.1
